Reference: article PMC9525273 (Nature Communications, 2022)
Values joined by “and” are separate entries in the source; they are usually repeats but may differ in a detail not shown here. Equal entries are not always repeated. Where two headings read alike, the source gives them in different places.

Assays:
Assay type in all cases: cell-based, Plasmodium falciparum
Dd2 parasites = test: P. falciparum proliferation assay (72 h, fluorescent DNA-intercalating dye)
Protocol: (§1) For experiments with all other parasites, the effects of compounds of interest on parasite proliferation was measured in 96-well plates containing serial dilutions of the compounds in culture medium, with a fluorescent DNA-intercalating dye used to detect surviving parasites. The assays were initiated with erythrocytes infected with predominantly ring-stage parasites, and the starting parasitaemia and haematocrit were both 1%.

[1] = test system: Dd2-PfATP4^T418N,P990R parasites; test: as above
Protocol: as §1

Dd2-Polδ parasites = test: as above
Protocol: as §1

[2] = test system: Dd2-Polδ-PfATP4^G358S parasites; test: as above
Protocol: as §1

[3] = test system: HCR1 parasites (highly cipargamin-resistant clone 1); test: as above; details: Plasmodium falciparum
Protocol: as §1

[4] = test system: HCR2 parasites (highly cipargamin-resistant clone 2); test: as above; details: Plasmodium falciparum
Protocol: as §1

NF54^G358S-1 parasites = test: P. falciparum proliferation assay (72 h, flow cytometry, SYBR Green I/MitoTracker)
Procedure, shortened: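 Predominantly ring-stage cultures at 0.3% parasitaemia, 1% haematocrit, in medium with 10% O+ human serum; compound exposure 72 h, DMSO <0.5% (v/v). Live parasites counted by flow cytometry with SYBR Green I and 200 nM MitoTracker Deep Red. IC50/IC90 from linear interpolation of dose-response data.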

For `N#Cc1cc(NC(=O)[C@H]2c3ccccc3C(=O)N(CC(F)(F)F)[C@@H]2c2cccnc2)ccc1F` [(+)-SJ733], the IC50 (Dd2 parasites; Plasmodium falciparum, DD2, read-out: IC50 values, Dd2, single experiments, source data of Fig. 2 (nM in Supplementary Table 1)) was 58.3 nM, the IC50 (Dd2 parasites; Plasmodium falciparum, DD2, read-out: IC50 values, MEAN, Dd2, MEAN, source data of Fig. 2) was 59.6 nM and the IC50 (Dd2 parasites; Plasmodium falciparum, DD2, read-out: Mean IC50 value ± SEM for growth inhibition, Dd2, Supplementary Table 1, Set 1) was 60 ± 2 nM. The IC50 (Dd2 parasites; read-out: IC50 values, Dd2, single experiments, source data of Fig. 2 (nM in Supplementary Table 1)) was 66.6 nM and 57.7 nM and 59 nM and 56.4 nM, the IC50 ([1]; Dd2-PfATP4T418N,P990R, single experiments, source data of Fig. 2 (nM in Supplementary Table 1), read-out: IC50 values) was 359 nM and 293 nM and 333 nM and 337 nM and the IC50 ([1]; Plasmodium falciparum, DD2, Dd2-PfATP4T418N,P990R, MEAN, source data of Fig. 2, read-out: IC50 values, MEAN) was 331 nM. The IC50 ([1]; Plasmodium falciparum, DD2, Dd2-PfATP4T418N,P990R, single experiments, source data of Fig. 2 (nM in Supplementary Table 1), read-out: IC50 values) was 334 nM, the IC50 ([1]; Plasmodium falciparum, DD2, read-out: Mean IC50 value ± SEM for growth inhibition, Dd2-PfATP4T418N,P990R, Supplementary Table 1, Set 1) was 331 ± 11 nM and the IC50 (Dd2-Polδ parasites; Dd2-Polδ, single experiments, source data of Fig. 2 (nM in Supplementary Table 1), read-out: IC50 values) was 30.9 nM and 37.1 nM and 51.3 nM. The IC50 (Dd2-Polδ parasites; Plasmodium falciparum, DD2, Dd2-Polδ, MEAN, source data of Fig. 2, read-out: IC50 values, MEAN) was 40.7 nM, the IC50 (Dd2-Polδ parasites; Plasmodium falciparum, DD2, Dd2-Polδ, single experiments, source data of Fig. 2 (nM in Supplementary Table 1), read-out: IC50 values) was 43.6 nM and the IC50 ([2]; Dd2-Polδ-PfATP4G358S, single experiments, source data of Fig. 2 (nM in Supplementary Table 1), read-out: IC50 values) was 11800 nM and 8860 nM and 8730 nM. It also gave an IC50 ([2]; Plasmodium falciparum, DD2, Dd2-Polδ-PfATP4G358S, MEAN, source data of Fig. 2, read-out: IC50 values, MEAN) of 9070 nM, an IC50 ([2]; Plasmodium falciparum, DD2, Dd2-Polδ-PfATP4G358S, single experiments, source data of Fig. 2 (nM in Supplementary Table 1), read-out: IC50 values) of 6890 nM and an IC50 ([2]; Plasmodium falciparum, DD2, SET-2, read-out: Mean IC50 value ± SEM for growth inhibition, Dd2-Polδ-PfATP4G358S, Supplementary Table 1, Set 2) of 9070 nM. It also gave an IC50 ([3]; HCR1, MEAN, source data of Fig. 2, read-out: IC50 values, MEAN) of 21.5 µM, an IC50 ([3]; read-out: Mean IC50 value ± SEM for growth inhibition, HCR1, Supplementary Table 1, Set 1) of 21.5 µM and an IC50 ([4]; HCR2, MEAN, source data of Fig. 2, read-out: IC50 values, MEAN) of 17.6 µM. The IC50 ([4]; read-out: Mean IC50 value ± SEM for growth inhibition, HCR2, Supplementary Table 1, Set 1) was 17.6 µM, the IC50 (NF54^G358S-1 parasites; NF54G358S-1, single experiments, source data of Fig. 2 (nM in Supplementary Table 5), read-out: IC50 values) was 12600 nM and 15300 nM and 15000 nM and the “FC (IC50)” value (NF54^G358S-1 parasites; NF54G358S-1 compared to NF54WT) was 148.8 fold. The “FC (IC90)” value (NF54^G358S-1 parasites; NF54G358S-1 compared to NF54WT) was 155.4 fold, the IC90 (NF54^G358S-1 parasites; NF54G358S-1 parasites, individual experiments, read-out: IC90 values) was 25.9 µM and 24.2 µM and 24.3 µM and the IC50 (NF54^G358S-1 parasites; Plasmodium falciparum, NF54, NF54G358S-1, 10% human serum, read-out: IC50 ± SEM) was 14000 ± 683 nM. It also gave an IC90 (NF54^G358S-1 parasites; Plasmodium falciparum, NF54, NF54G358S-1, 10% human serum, read-out: IC90 ± SEM) of 25.4 ± 0.727 µM, an IC50 (NF54^G358S-1 parasites; Plasmodium falciparum, NF54, NF54G358S-1, MEAN, source data of Fig. 2, read-out: IC50 values, MEAN) of 14000 nM and an IC50 (NF54^G358S-1 parasites; Plasmodium falciparum, NF54, NF54G358S-1, single experiments, source data of Fig. 2 (nM in Supplementary Table 5), read-out: IC50 values) of 13000 nM. The IC90 (NF54^G358S-1 parasites; Plasmodium falciparum, NF54, NF54G358S-1 parasites, individual experiments, read-out: IC90 values) was 27.2 µM and the IC90 (NF54^G358S-1 parasites; Plasmodium falciparum, NF54, NF54G358S-1 parasites, mean of the experiments, read-out: IC90 values, MEAN) was 25.4 µM.
